In patent US20220168434A1, “APPLICATION OF TRANSTHYRETIN IN ENTERING EYE AND PREPARING DROP” (YIZHOU (SHANGHAI) BIOLOGICAL MEDICINE CO, LTD., priority 2019, published 2022):

Tests used:
[1] = test system: DR SD rats induced by STZ; assay: DR (diabetic retinopathy) SD rats induced by STZ, eye dropping, EB staining and Trypsin enzymatic hydrolysis of retina; format: in vivo; conditions: for eyeball retinal leakage condition (in words) / number of retinal neovascularization (in words): eye dropping twice per day
Description: 8-week-old SD rats weighing 200-250 g was fasted for 12-18 h, and treated with intraperitoneally injection of 2% STZ (60 mg/kg), followed by cutting the tail and collecting blood thereof after 48 h and 72 h. […] DR SD rats were divided into 2 large groups, one is DR SD rats without any treatment (5 rats), and the other is the human TTR eye dropping group (25 rats) dropped with the human TTR prepared in Example 5, each left eye dropped with human TTR (5-20 μmol/L) (normal saline+2% hyaluronic acid) twice a day, and each right eye dropped with saline+2% hyaluronic acid; in addition, another group of normal SD rats (No eye dropping) served as a normal control group (5 rats).
8-week-old SD rats weighing 200-250 g was fasted for 12-18 h, and treated with intraperitoneally injection of 2% STZ (60 mg/kg), followed by cutting the tail and collecting blood thereof after 48 h and 72 h. […]
8-week-old SD rats weighing 200-250 g, was fasted for 12-18 h, and treated with intraperitoneally injection of 2% STZ (60 mg/kg), followed by cutting the tail and collecting blood thereof after 48 h and 72 h. […] Wherein, the left eye was dropped with human TTR prepared in Example 5, or human TTR prepared in Example 5 added with the ligand, specifically with 10 μmol/L human TTR (saline solution+2% hyaluronic acid), 10 μmol/L human TTR (saline solution+2% hyaluronic acid+10 diclofenac sodium), 10 μmol/L human TTR (saline solution+2% hyaluronic acid+5 μmol/L vitamin A+5% Tween 80) and 10 μmol/L human TTR (saline solution+2% hyaluronic acid+5 luteoloside); the right eye was dropped with saline solution+2% hyaluronic acid, or saline solution+2% hyaluronic acid+ligand as control, specifically with saline solution+2% hyaluronic acid, saline solution+2% hyaluronic acid+10 diclofenac sodium, saline solution+2% hyaluronic acid+5 μmol/L vitamin A+5% Tween 80 and saline solution+2% hyaluronic acid+5 μmol/L luteoloside. In addition, there was another group of normal SD rats as a normal control group (5 rats). All SD rats were fed for 3 months, followed by stripping the retina for staining with Evans Blue (EB) to observe the retinal vascular leakage, for Trypsin enzymatic hydrolysis to observe the density of neovascularization.

[2] = test system: ROP SD suckling rats induced by hyperbaric oxygen chamber; assay: ROP (retinopathy of prematurity) SD suckling rats induced by hyperbaric oxygen chamber, eye dropping, EB staining of retina; format: in vivo
[3] = test system: AMD C57BL/6 mice induced by laser retinal photocoagulation; assay: AMD (age-related macular degeneration) C57BL/6 mice induced by laser retinal photocoagulation, eye dropping, EB staining and Trypsin enzymatic hydrolysis of retina; format: in vivo; conditions: for eyeball retinal leakage condition (in words) / number of retinal neovascularization / neovascularization condition (in words): 10 μmol/L, eye dropping twice per day
Source text: (§1) 9-week-old C57BL/6 mice were subject to retinal photocoagulation by krypton laser (647 nm), with a power of 360 mW, a diameter of 50 μm, a time of 0.05 s, 8 photocoagulation site for each eye, for inducing the neovascularization in choroid, and gradually proceeding to retinal hyperplasia to obtain AMD C57BL/6 mice. AMD C57BL/6 mice were divided into a dropping group and a non-dropping group.
as §1, with “group. […] The animals were sacrificed after eye dropping for 2 weeks, and the retina was stripped for EB staining to observe the retinal leakage conditions, and for Trypsin enzymatic hydrolysis to observe the density of neovascularization.” for “group.”
9-week-old C57BL/6 mice were subject to retinal photocoagulation by krypton laser (647 nm), with a power of 360 mW, a diameter of 50 μm, a time of 0.05 s, 8 photocoagulation site for each eye, for inducing the neovascularization in choroid, and gradually proceeding to retinal hyperplasia to obtain AMD C57BL/6 mice. […] Wherein, the left eye was dropped with human TTR prepared in Example 5, or human TTR prepared in Example 5 added with the excipient, specifically with 10 μmol/L human TTR (saline solution), 10 μmol/L human TTR (saline solution+6 mg/mL sodium carboxymethyl cellulose), 10 μmol/L human TTR (saline solution+6 mg/mL PEG400), 10 μmol/L human TTR (saline solution+0.4 mg/mL dextran 70) and 10 μmol/L human TTR (saline solution+20 mg/mL chondroitin sulfate A sodium salt); the right eye was dropped with saline solution, or saline solution added with the excipient as control, specifically with saline solution, saline solution+6 mg/mL sodium carboxymethyl cellulose, saline solution+6 mg/mL PEG400, saline solution+0.4 mg/mL dextran 70 and saline solution+20 mg/mL chondroitin sulfate A sodium salt). In addition, there was another group of normal […] C57BL/6 mice as a normal control group (5 mice). The animals were sacrificed after eye dropping for 2 weeks, and the retina was stripped for EB staining to observe the retinal leakage conditions, and for Trypsin enzymatic hydrolysis to observe the density of neovascularization.
9-week-old C57BL/6 mice were subject to retinal photocoagulation by krypton laser (647 nm), with a power of 360 mW, a diameter of 50 μm, a time of 0.05 s, 8 photocoagulation site for each eye, for inducing the neovascularization in choroid, and gradually proceeding to retinal hyperplasia to obtain AMD C57BL/6 mice. […] Wherein, the left eye was dropped with human TTR prepared in Example 5, or human TTR prepared in Example 5 added with the ligand, specifically with 10 μmol/L human TTR (saline solution+2% hyaluronic acid), 10 μmol/L human TTR (saline solution+2% hyaluronic acid+10 diclofenac sodium), 10 μmol/L human TTR (saline solution+2% hyaluronic acid+5 μmol/L vitamin A+5% Tween 80) and 10 μmol/L human TTR (saline solution+2% hyaluronic acid+5 μmol/L luteoloside); the right eye was dropped with saline solution+2% hyaluronic acid, or saline solution+2% hyaluronic acid+ligand as control, specifically with saline solution+2% hyaluronic acid, saline solution+2% hyaluronic acid+10 diclofenac sodium, saline solution+2% hyaluronic acid+5 μmol/L vitamin A+5% Tween 80 and saline solution+2% hyaluronic acid+5 luteoloside. In addition, there was another group of normal C57BL/6 mice as a normal control group (5 mice). The animals were sacrificed after eye dropping for 2 weeks, and the retina was stripped for EB staining to observe the retinal leakage conditions, and for Trypsin enzymatic hydrolysis to observe the density of neovascularization.

TTR = biological target: T1, TTR (Homo sapiens, UniProt P02766); assay: Affinity binding equilibrium dissociation constant Kd of TTR and ligand molecules by nano ITC; conditions: 10 μmol/L TTR solution, 100 μmol/L ligand solution dropped at 1 μL/min, read-out: Affinity binding equilibrium dissociation constants (Kd) of ligand molecule and TTR
T1 construct: made in house; host or cells: E. coli BL21 (DE3)
Description: The affinity binding equilibrium dissociation constant Kd of TTR and each ligand molecule or salts thereof described in Example 24 was determined by nano ITC (TA).

TTR dimer = TTR dimer (Homo sapiens, UniProt P02766); conditions: static co-crystallization model in the PDB database (3CFQ); cited from earlier work
[4] = DR SD rats induced by STZ, 3 months of eye dropping, ligand independently (no TTR) in saline + 2% hyaluronic acid: 10 μmol/L diclofenac sodium/5 μmol/L vitamin A + 5% Tween 80/5 μmol/L luteoloside, right eye
[5] = ROP SD suckling rats induced by hyperbaric oxygen chamber, 5 days of eye dropping, ligand independently (no TTR) in saline + 2% hyaluronic acid: 10 μmol/L diclofenac sodium/5 μmol/L vitamin A + 5% Tween 80/5 μmol/L luteoloside, right eye
[6] = AMD C57BL/6 mice induced by laser retinal photocoagulation, 2 weeks of eye dropping, ligand independently (no TTR) in saline + 2% hyaluronic acid: 10 μmol/L diclofenac sodium/5 μmol/L vitamin A + 5% Tween 80/5 μmol/L luteoloside, right eye
[7] = DR SD rats induced by STZ, 3 months
[8] = DR SD rats, 10 μmol/L in saline solution + 2% hyaluronic acid, eyedropping twice a day, 3 months
[9] = ROP SD suckling rats, 10 μmol/L in saline solution + 2% hyaluronic acid, eyedropping once per day, 5 days
[10] = AMD C57BL/6 mice, 10 μmol/L in saline solution + 2% hyaluronic acid, eyedropping twice per day, 2 weeks

| Compound | No. of retinal neovascularization (10 visual fields) [1, 4] | Retinal leakage area [1, 4] [%] | Retinal leakage area [2, 5] [%] | No. of retinal neovascularization (10 visual fields) [3, 6] | Retinal leakage area [3, 6] [%] | Kd (TTR) [nM] | further results |
| --- | --- | --- | --- | --- | --- | --- | --- |
| O=C(O)Cc1ccccc1Nc1c(Cl)cccc1Cl [Diclofenac sodium, diclofenac sodium, reference compound] | 80 ± 9 | 30.4 | 48.5 ± 5.8 | 85 ± 6 | 25.2 ± 3.0 | 45 | – |
| O=c1cc(-c2ccc(O)c(O)c2)oc2cc(O[C@@H]3O[C@H](CO)[C@@H](O)[C@H](O)[C@H]3O)cc(O)c12 [Luteoloside, luteoloside, reference compound] | 79 ± 9 | 27.6 | 51.2 ± 6.8 | 82 ± 8 | 21.3 ± 2.2 | 129 | – |
| CC1=C(/C=C/C(C)=C/C=C/C(C)=C/CO)C(C)(C)CC=C1 [Vitamin A2, 3-dehydroretinol] | – | – | – | – | – | 23.5 | – |
| CC1=C(/C=C/C(C)=C/C=C/C(C)=C/CO)C(C)(C)CCC1 [Vitamin A, retinol, reference compound] | 76 ± 8 | 28.9 | 46.9 ± 4.9 | 79 ± 10 | 26.7 ± 3.4 | 22.7 | – |
| O=C(O)Cc1ccccc1Nc1c(Cl)cccc1Cl [diclofenac] | – | – | – | – | – | – | molecules of ligand that one molecule of TTR dimer can bind (TTR dimer): two molecules |
| human TTR-CL: human mature TTR losing C terminus-TNPKE, amino acid sequence of SEQ ID NO: 11 | – | – | – | – | – | – | eyeball retinal leakage condition (in words) [1, 7]: significantly inhibited; number of retinal neovascularization (in words) [1, 7]: reduced significantly; No. of retinal neovascularization (10 visual fields) [1, 8]: 10 ± 1; Retinal leakage area [1, 8]: 5.7 ± 0.9%; Retinal leakage area [2, 9]: 3.0%; No. of retinal neovascularization (10 visual fields) [3, 10]: 11 ± 2; Retinal leakage area [3, 10]: 4.8 ± 0.6%; eyeball retinal leakage condition (in words) ([3]; AMD C57BL/6 mice, 2 weeks): inhibited significantly; number of retinal neovascularization / neovascularization condition (in words) ([3]; AMD C57BL/6 mice, 2 weeks): reduced significantly |
| mouse TTR: recombinant mouse TTR, amino acid sequence SEQ ID NO: 10 | – | – | – | – | – | – | No. of retinal neovascularization (10 visual fields) [3, 10]: 10 ± 3; Retinal leakage area [3, 10]: 4.2 ± 0.5%; eyeball retinal leakage condition (in words) ([3]; AMD C57BL/6 mice, 2 weeks): inhibited significantly; number of retinal neovascularization / neovascularization condition (in words) ([3]; AMD C57BL/6 mice, 2 weeks): reduced significantly |
| rat TTR: recombinant rat TTR, amino acid sequence SEQ ID NO: 9 | – | – | – | – | – | – | eyeball retinal leakage condition (in words) [1, 7]: significantly inhibited; number of retinal neovascularization (in words) [1, 7]: reduced significantly; No. of retinal neovascularization (10 visual fields) [1, 8]: 13 ± 2; Retinal leakage area [1, 8]: 6.2 ± 0.7%; Retinal leakage area [2, 9]: 3.6% |
